From ChEMBL document CHEMBL1201862, “PubChem BioAssay data set” (2004)
Active and inactive are the calls of the source.

Tests used:
[1] = luciferase reporter signal suppression in cells – H4 neuroglioma cells, luminescence, dose response (AID 1990); type: functional, cell-based
[2] = system: Streptococcus sp. 'group A'; assay: Streptococcus pyogenes SK(-)GAS viability under kanamycin – luminescence, BacTiterGlo, confirmation, counter-screen for streptokinase expression inhibitor project, dose response (AID 1900); type: functional, organism-based
[3] = Luminescence Cell-Based Dose Response HTS to Identify Inhibitors of 5'UTR Stem-Loop Driven Prion Protein mRNA Translation in H4 Neuroglioblastoma Cells. [Related pubchem assays: 1827 (Project Summary), 1813 (Primary HTS)]; type: functional
[4] = alpha-synuclein stem-loop luciferase translation blockers – H4 neuroglioma cells, luminescence, confirmation (AID 1988); type: functional, cell-based
Streptococcus = assay: GAS UMAA2166 growth inhibition – luminescence, BacTiterGlo, counter-screen for streptokinase expression inhibitor project, dose response (AID 1915); type: functional, organism-based;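 further: potency for reduction of bacterial viability or growth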
[5] = Luminescence Cell-Based Dose Retest to Confirm Inhibitors of Cancer Stem Cells. [Related pubchem assays (depositor defined):AID2717, AID2721]; type: functional; conditions: Homo sapiens
Cytochrome P450 2C19 = Cytochrome P450 2C19 (Homo sapiens, UniProt P33261); assay: Cytochrome panel assay with activity outcomes. Panel member name: p450-cyp2c19 Compounds with AC50 equal or less than 10 uM are considered active; type: functional; conditions: read-out: AC50
Cytochrome P450 2C19, sequence (P33261 whole entry): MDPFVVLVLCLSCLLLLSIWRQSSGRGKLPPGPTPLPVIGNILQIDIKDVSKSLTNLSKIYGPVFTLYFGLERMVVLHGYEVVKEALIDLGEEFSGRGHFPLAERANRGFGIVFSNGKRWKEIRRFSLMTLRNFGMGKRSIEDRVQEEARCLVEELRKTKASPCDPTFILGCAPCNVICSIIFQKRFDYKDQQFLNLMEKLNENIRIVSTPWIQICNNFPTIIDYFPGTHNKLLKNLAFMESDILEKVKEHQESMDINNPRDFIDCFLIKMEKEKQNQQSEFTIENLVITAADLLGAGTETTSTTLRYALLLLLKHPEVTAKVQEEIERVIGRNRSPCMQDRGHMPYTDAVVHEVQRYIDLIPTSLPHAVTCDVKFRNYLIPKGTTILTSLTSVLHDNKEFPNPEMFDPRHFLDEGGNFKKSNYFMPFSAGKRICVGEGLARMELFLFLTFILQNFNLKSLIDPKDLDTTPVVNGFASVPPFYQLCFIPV

[6] = IC50 of Artemis nuclease activity blockers – biochemical, fluorescence intensity, dose response (AID 720701); type: functional;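 further: Artemis endonuclease enzyme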
Cytochrome P450 2D6 = Cytochrome P450 2D6 (Homo sapiens, UniProt P10635);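 further: CYP2D6 member of a cytochrome P450 panel assay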
Cytochrome P450 2D6, sequence (P10635 whole entry): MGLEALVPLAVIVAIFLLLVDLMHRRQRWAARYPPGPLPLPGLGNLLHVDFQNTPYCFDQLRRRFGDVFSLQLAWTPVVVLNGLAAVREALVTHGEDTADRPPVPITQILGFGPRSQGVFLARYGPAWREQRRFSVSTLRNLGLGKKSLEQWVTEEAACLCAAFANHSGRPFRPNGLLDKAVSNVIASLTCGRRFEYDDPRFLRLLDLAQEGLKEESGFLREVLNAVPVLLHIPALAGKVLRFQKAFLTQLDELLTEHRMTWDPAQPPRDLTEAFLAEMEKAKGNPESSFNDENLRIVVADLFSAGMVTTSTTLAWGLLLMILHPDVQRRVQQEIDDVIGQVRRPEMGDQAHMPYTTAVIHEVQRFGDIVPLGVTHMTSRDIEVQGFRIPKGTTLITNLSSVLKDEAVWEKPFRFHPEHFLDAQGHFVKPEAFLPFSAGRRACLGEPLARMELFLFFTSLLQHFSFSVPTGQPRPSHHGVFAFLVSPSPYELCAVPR

[7] = target: T1, Replicative DNA helicase DnaB (Mycobacterium tuberculosis, UniProt P9WMR3); assay: DnaB intein splicing inhibitors, dose response, biochemical, cell-free fluorescence (AID 449749); type: functional
T1 sequence (P9WMR3 whole entry): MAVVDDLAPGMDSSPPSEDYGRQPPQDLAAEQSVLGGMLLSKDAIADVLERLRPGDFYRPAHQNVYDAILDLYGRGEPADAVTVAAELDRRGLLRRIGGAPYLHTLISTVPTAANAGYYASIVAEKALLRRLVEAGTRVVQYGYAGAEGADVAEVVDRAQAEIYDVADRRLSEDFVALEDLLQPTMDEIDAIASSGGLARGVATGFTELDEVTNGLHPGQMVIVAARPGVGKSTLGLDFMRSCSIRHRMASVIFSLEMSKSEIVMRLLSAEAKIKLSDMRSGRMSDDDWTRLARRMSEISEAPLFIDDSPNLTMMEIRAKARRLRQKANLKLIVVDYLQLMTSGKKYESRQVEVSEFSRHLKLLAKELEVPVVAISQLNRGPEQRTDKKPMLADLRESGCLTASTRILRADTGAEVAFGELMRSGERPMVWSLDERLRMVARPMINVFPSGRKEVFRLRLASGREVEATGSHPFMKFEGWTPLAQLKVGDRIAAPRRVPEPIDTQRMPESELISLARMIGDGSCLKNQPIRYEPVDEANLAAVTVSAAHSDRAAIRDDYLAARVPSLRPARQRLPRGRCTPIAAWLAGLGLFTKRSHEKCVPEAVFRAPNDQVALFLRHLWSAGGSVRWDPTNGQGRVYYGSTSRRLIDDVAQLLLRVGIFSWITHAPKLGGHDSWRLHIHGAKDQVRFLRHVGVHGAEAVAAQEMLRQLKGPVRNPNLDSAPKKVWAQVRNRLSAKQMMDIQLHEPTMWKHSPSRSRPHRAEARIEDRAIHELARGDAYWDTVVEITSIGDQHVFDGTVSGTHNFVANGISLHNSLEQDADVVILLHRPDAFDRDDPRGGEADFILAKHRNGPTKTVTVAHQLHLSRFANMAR

Protein RecA = target: T2, Protein RecA (Mycobacterium tuberculosis, UniProt P9WHJ3); assay: Fluorescence Cell-Free Homogeneous Dose Retest to Identify Inhibitors of RecA-Intein Splicing Activity. [Related pubchem assays (depositor defined):AID2097, AID2223, AID489010, AID492950]; type: functional
T2 sequence (P9WHJ3 whole entry): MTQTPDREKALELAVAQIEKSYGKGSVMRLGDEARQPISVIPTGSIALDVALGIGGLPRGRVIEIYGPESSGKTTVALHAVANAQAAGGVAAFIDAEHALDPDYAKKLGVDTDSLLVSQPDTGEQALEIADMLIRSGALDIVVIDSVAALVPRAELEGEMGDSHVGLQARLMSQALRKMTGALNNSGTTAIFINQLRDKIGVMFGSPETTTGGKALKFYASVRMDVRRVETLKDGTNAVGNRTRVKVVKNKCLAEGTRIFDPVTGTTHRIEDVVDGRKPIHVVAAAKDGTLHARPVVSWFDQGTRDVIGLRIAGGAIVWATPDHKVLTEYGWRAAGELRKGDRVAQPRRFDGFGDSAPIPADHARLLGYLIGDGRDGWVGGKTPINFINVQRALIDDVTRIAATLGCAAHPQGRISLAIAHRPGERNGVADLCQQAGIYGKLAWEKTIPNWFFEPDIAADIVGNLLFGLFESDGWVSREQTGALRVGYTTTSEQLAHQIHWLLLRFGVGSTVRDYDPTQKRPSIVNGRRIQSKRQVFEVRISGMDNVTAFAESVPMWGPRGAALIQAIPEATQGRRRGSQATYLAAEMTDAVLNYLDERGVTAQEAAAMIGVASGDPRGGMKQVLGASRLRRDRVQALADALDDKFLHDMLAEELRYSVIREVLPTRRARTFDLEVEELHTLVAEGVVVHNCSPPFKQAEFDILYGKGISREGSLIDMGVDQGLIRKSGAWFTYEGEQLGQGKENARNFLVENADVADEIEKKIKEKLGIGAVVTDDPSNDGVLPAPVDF

Paired box protein Pax-8 = Paired box protein Pax-8 (Homo sapiens, UniProt Q06710); assay: PAX8 transcriptional activity inhibition in RMG-I – RMG-I cells, luciferase, cherry-pick, dose response (AID 687027); type: functional, cell-based;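 further: luciferase reporter driven by Pax8 target thyroperoxidase promoter measured by SteadyGlo luminescence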
Paired box protein Pax-8, sequence (Q06710 whole entry): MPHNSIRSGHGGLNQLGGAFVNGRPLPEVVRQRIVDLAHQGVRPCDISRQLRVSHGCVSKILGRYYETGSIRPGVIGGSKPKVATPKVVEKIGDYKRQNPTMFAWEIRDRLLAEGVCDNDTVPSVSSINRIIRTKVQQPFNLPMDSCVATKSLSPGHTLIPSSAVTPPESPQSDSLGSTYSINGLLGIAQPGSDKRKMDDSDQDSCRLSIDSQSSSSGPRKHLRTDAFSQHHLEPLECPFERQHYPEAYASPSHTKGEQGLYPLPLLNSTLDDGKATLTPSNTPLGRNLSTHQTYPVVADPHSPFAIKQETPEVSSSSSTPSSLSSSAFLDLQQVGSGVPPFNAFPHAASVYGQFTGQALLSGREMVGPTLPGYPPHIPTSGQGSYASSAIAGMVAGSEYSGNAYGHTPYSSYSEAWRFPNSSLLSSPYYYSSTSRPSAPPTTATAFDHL

[8] = inhibitors acting on PAX2 in cells – cell-based, plate reader, dry powder samples, selectivity assay for PAX8 inhibitor project, dose response (AID 743048); type: functional;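 further: HEK293 cells carrying a WT1 promoter luciferase reporter driven by expressed Pax2; potency is for inhibition of Pax2 driven reporter signal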
[9] = toxicity toward immortalized ovarian surface epithelium – cell-based, plate reader, dry powder samples, cytotoxicity control for PAX8 inhibitor project, dose response (AID 743045); type: functional
[10] = OVCAR-3 cell viability loss – plate reader, dry powder samples, PAX8 inhibitor project, dose response (AID 743044); type: functional, cell-based
[11] = COV434 cell viability loss – plate reader, dry powder, SA7, cytotoxicity control for PAX8 inhibitor project, dose response (AID 743145); type: functional, cell-based
[12] = PAX8-dependent cell viability loss – plate reader, dry powder, dose response (AID 743049); type: functional, cell-based
[13] = A Cell Based Secondary Assay To Explore Cytotoxicity of Compounds that Sensitize Mycobacterium Tuberculosis to Beta-Lactam Antibiotics.; type: functional
Kallikrein-7 = Kallikrein-7 (Homo sapiens, UniProt P49862); assay: Fluorescence Intensity-based biochemical primary high throughput dose response assay to identify activators of kallikrein-7 (K7) zymogen.
Kallikrein-7, sequence (P49862 whole entry): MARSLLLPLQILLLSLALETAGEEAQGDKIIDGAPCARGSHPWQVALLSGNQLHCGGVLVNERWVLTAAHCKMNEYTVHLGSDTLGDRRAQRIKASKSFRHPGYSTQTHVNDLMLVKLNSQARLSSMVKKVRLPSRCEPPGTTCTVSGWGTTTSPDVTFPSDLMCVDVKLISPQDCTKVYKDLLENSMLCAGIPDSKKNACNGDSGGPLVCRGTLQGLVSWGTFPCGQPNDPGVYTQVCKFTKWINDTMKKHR

[14] = IC50 of insulin release inhibition, rat insulinoma INS-1E line, 5 mM glucose, cell-based (AID 1117331); type: functional
[15] = cervical cancer cell viability loss – HeLa, 24 h, plate reader, powder samples, set 3, cytotoxicity control, dose response (AID 651864); type: functional, cell-based
Protein skinhead-1 = target: T3, Protein skinhead-1 (Caenorhabditis elegans, UniProt P34707); type: functional
T3 sequence (P34707 whole entry): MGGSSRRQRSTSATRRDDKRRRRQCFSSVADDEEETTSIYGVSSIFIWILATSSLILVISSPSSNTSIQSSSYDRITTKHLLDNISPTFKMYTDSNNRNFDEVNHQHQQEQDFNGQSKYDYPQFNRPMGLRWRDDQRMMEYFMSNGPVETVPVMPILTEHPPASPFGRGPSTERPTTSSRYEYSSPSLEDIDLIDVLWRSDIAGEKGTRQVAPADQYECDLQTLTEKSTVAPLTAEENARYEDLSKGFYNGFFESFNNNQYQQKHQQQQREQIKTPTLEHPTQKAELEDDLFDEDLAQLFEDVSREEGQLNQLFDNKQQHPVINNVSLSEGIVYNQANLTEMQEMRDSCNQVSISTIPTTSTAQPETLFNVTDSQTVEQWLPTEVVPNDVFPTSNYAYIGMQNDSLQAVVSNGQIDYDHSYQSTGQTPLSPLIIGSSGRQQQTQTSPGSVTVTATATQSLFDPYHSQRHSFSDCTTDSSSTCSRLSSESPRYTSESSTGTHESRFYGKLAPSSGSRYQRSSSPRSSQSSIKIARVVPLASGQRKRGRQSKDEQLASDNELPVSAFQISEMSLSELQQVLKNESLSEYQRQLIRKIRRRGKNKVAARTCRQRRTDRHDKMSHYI

[16] = Luminescence-based cell-based high throughput dose response assay to identify activators of the DAF-12 from the parasite S. stercoralis (ssDAF-12).; type: functional
[17] = target: T4, Oxysterols receptor LXR-beta (Homo sapiens, UniProt P55055); assay: LXR agonists, Gal4 luciferase reporter, dose response, counter-screen for ssDAF-12 agonist project, cell-based, luminescence, HEK293, S. stercoralis campaign (AID 720737); type: functional; conditions: read-out: IC50 (the source's name)
T4 sequence (P55055 whole entry): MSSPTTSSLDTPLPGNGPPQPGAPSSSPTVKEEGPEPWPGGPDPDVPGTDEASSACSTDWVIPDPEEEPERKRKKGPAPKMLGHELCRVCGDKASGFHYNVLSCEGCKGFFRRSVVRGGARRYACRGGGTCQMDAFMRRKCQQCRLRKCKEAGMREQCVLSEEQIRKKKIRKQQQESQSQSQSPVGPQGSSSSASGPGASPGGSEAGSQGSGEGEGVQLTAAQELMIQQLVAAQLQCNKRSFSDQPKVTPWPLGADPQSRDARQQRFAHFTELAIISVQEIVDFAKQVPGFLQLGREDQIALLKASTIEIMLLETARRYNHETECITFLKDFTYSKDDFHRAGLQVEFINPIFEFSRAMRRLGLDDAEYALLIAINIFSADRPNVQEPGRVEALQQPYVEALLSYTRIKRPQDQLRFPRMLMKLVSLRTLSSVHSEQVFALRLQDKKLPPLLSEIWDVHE

Question: With `Nc1nn2c(O)cc(-c3ccccc3)nc2c1N=Nc1ccccc1` as the compound, how does the EC50 [1] read?
Answer: > 60 µM (not active)

Question: And the EC50 [2]?
Answer: 1.67 µM (active)

Question: And the EC50 [3]?
Answer: 12.7 µM (active)

Question: What about the EC50 [4] of the same compound?
Answer: 10.5 µM (active)

Question: What about the EC50 (Streptococcus) of the same compound?
Answer: 4.43 µM (active)

Question: What about the AC50 [5] of the same compound?
Answer: 1.62 µM (active)

Question: And the AC50 (Cytochrome P450 2C19)?
Answer: 28.2 µM (inconclusive)

Question: What about the IC50 [6] of the same compound?
Answer: 19.9 µM (active)

Question: And the AC50 (Cytochrome P450 2D6)?
Answer: 28.2 µM (inconclusive)

Question: With `O=C1/C(=C/c2ccccc2F)SC(=S)N1CC(=O)N1CCCCC1c1cccnc1` (centres undefined) as the compound, how does the AC50 [7] read?
Answer: 17.9 µM (active)

Question: And the EC50 (Protein RecA)?
Answer: 18.6 µM (active)

Question: And the AC50 (Paired box protein Pax-8)?
Answer: 5.04 µM (active)

Question: And the AC50 [8]?
Answer: > 100 µM (inactive)

Question: What about the AC50 [9] of the same compound?
Answer: 43.5 µM (active)

Question: And the AC50 [10]?
Answer: 26.3 µM (active)

Question: And the AC50 [11]?
Answer: 38.3 µM (active)

Question: And the AC50 [12]?
Answer: 44.9 µM (active)

Question: Which CC50 [13] does the source give for `COc1ccc(OC(=O)c2cccc([N+](=O)[O-])c2)c(C(=O)/C=C/c2cccs2)c1` here?
Answer: 39.6 µM (active)

Question: And the EC50 (Kallikrein-7)?
Answer: 46 µM (inactive)

Question: With `OC(CCN1CCCCC1)(c1ccccc1)c1ccccc1` [PRIDINOL] as the compound, how does the IC50 [14] read?
Answer: 27 µM (inactive)

Question: With `c1ccc(Cn2nnc(NCc3ccc(N4CCCC4)cc3)n2)cc1` as the compound, how does the AC50 [15] read?
Answer: > 160 µM (inactive)

Question: With `Fc1ccc(-c2csc(Nc3ccccn3)n2)cc1` as the compound, how does the IC50 (Protein skinhead-1) read?
Answer: 22.8 µM (active)

Question: What about the IC50 [16] of the same compound?
Answer: > 67.6 µM (inactive)

Question: And the EC50 [17]?
Answer: > 67.6 µM (inactive)
